From EP0774465A1, “Penem derivatives and antimicrobial agents containing the same” (priority 1995, dated 1997)
Values after ≈ are worked out from the molar mass of the structure shown. Like-named read-outs stand apart in the source and are kept apart here.

Experiments:
MRSA 31 = assay: Antibacterial activity (MIC) against MRSA 31; assay type: cell-based, methicillin-resistant Staphylococcus aureus; details: for MIC: Staphylococcus aureus, MRSA, read-out: antibacterial activities (MIC)
Description: (§1) With respect to compounds (I) of the present invention obtained as described above, their general antibacterial activities and their antibacterial activities (MIC) against various methicillin-resistant strains of Staphylococcus aureus (methicillin-resistant Staphylococcus aureus: MRSA) were investigated. The results will be shown in Table 1, in which the test compounds are indicated by the numbers of their working examples to be described subsequently. Further, as the general antibacterial activities, those of Staphylococcus aureus 209P JC-1 and Escherichia coli NIHJ JC-2 were used.
(§2) (The unit for the figures in the table is µg/mℓ.)

MRSA 33 = assay: Antibacterial activity (MIC) against MRSA 33; assay type: cell-based, methicillin-resistant Staphylococcus aureus; details: for MIC: Staphylococcus aureus, MRSA, read-out: antibacterial activities (MIC)
Description: as §1, §2

[1] = test system: Staphylococcus aureus 209P JC-1; assay: General antibacterial activity (MIC) against Staphylococcus aureus 209P JC-1; assay type: cell-based; details: for MIC: Staphylococcus aureus, read-out: antibacterial activities (MIC)
Description: as §1, §2

[2] = test system: Escherichia coli NIHJ JC-2; assay: General antibacterial activity (MIC) against Escherichia coli NIHJ JC-2; assay type: cell-based; details: for MIC: Escherichia coli; for antibacterial activities (MIC): NIHJ JC-2, 10^6 cfu/mℓ
Description: as §1, §2

[3] = NIHJJC2, NIHJ JC-2, 10^6 cfu/mℓ, read-out: antibacterial activities (MIC)

Compound | MIC (MRSA 31; MRSA 31, 10^6 cfu/mℓ) [µg/mL] | MIC (MRSA 33; MRSA 33, 10^6 cfu/mℓ) [µg/mL] | MIC ([1]; 209P JC-1, 10^6 cfu/mℓ) [µg/mL] | MIC [2, 3] [µg/mL] | further results
C[C@H](O)[C@@H]1C(=O)N2C(C(=O)O)=C(S[C@H]3CCN(CCF)C3)S[C@H]12 [Ex. 79, (5R,6R)-6-((S)-l-hydroxyethyl)-2-[(S)-1-(2-fluoroethyl)pyrrolidin-3-yl]thiopenem-3-carboxylic acid] | 6.25 (≈ 17.2 µM) | 6.25 (≈ 17.2 µM) | 0.1 (≈ 0.276 µM) | 0.1 (≈ 0.276 µM) | 
C[C@H](O)[C@@H]1C(=O)N2C(C(=O)O)=C(SC3Cc4ccccc4C3)S[C@H]12 [Ex. 71, (5R,6R)-6-((S)-1-hydroxyethyl)-2-(2-indanyl)thiopenem-3-carboxylic acid] | 3.13 (≈ 8.61 µM) | 1.56 (≈ 4.29 µM) | 0.05 (≈ 0.138 µM) | 6.25 (≈ 17.2 µM) | 
(5R,6R)-6-((S)-1-fluoroethyl)-2-methylthiopenem-3-carboxylic acid [Ex. 99] |  |  |  |  | antibacterial activities (MIC) (MRSA 31; MRSA 31, 10^6 cfu/mℓ): 6.25 µg/mL; antibacterial activities (MIC) (MRSA 33; MRSA 33, 10^6 cfu/mℓ): 6.25 µg/mL; antibacterial activities (MIC) ([1]; 209P JC-1, 10^6 cfu/mℓ): 0.1 µg/mL; antibacterial activities (MIC) [2]: 0.78 µg/mL
C[C@H](O)[C@@H]1C(=O)N2C(C(=O)O)=C(SCc3ccc4ccccc4c3)S[C@H]12 [Ex. 76, (5R,6R)-6-((S)-1-hydroxyethyl)-2-(2-naphthyl)methylthiopenem-3-carboxylic acid] | 3.13 (≈ 8.08 µM) | 3.13 (≈ 8.08 µM) | 0.1 (≈ 0.258 µM) | 12.5 (≈ 32.3 µM) | 
C[C@H](O)[C@@H]1C(=O)N2C(C(=O)O)=C(S[C@H]3CCN(CC(=O)c4ccccc4)C3)S[C@H]12 [Ex. 88, (5R,6R)-6-((S)-1-hydroxyethyl)-2-[(S)-1-(2-oxo-2-phenylethyl)pyrrolidin-3-ylthio]penem-3-carboxylic acid] | 6.25 (≈ 14.4 µM) | 6.25 (≈ 14.4 µM) | 0.2 (≈ 0.46 µM) | 0.39 (≈ 0.898 µM) | 
CCCSC1=C(C(=O)O)N2C(=O)[C@@H]([C@H](C)O)[C@H]2S1 [Ex. 46, (5R,6R)-6-((S)-1-hydroxyethyl)-2-propylthiopenem-3-carboxylic acid] | 12.5 (≈ 43.2 µM) | 12.5 (≈ 43.2 µM) | 0.39 (≈ 1.35 µM) | 0.78 (≈ 2.7 µM) | 
C[C@H](O)[C@@H]1C(=O)N2C(C(=O)O)=C(SCC(=O)NCc3ccccc3)S[C@H]12 [Ex. 13, (5R,6R)-2-(N-benzylcarbamoylmethyl)thio-6-((S)-1-hydroxyethyl)penem-3-carboxylic acid] | 12.5 (≈ 31.7 µM) | 12.5 (≈ 31.7 µM) | 0.39 (≈ 0.989 µM) | 3.13 (≈ 7.93 µM) | 
C[C@H](O)[C@@H]1C(=O)N2C(C(=O)O)=C(SCc3ccccc3)S[C@H]12 [Ex. 42, (5R,6R)-6-((S)-1-hydroxyethyl)-2-benzylthiopenem-3-carboxylic acid] | 3.13 (≈ 9.28 µM) | 3.13 (≈ 9.28 µM) | 0.1 (≈ 0.296 µM) | 6.25 (≈ 18.5 µM) | 
C[C@H](O)[C@@H]1C(=O)N2C(C(=O)O)=C(SC3CCc4ccccc43)S[C@H]12 (stereo partly drawn) [Ex. 81, (5R,6R)-6-((S)-1-hydroxyethyl)-2-(1-indanyl)thiopenem-3-carboxylic acid] | 3.13 (≈ 8.61 µM) | 3.13 (≈ 8.61 µM) | 0.1 (≈ 0.275 µM) | 6.25 (≈ 17.2 µM) | 
CSC1=C(C(=O)O)N2C(=O)[C@@H]([C@H](C)O)[C@H]2S1 [Ex. 40, (5R,6R)-6-((S)-1-hydroxyethyl)-2-methylthiopenem-3-carboxylic acid] | 12.5 (≈ 47.8 µM) | 12.5 (≈ 47.8 µM) | 0.39 (≈ 1.49 µM) | 0.39 (≈ 1.49 µM) | 
C[C@H](O)[C@@H]1C(=O)N2C(C(=O)O)=C(S[C@@H]3CN[C@H](CO)C3)S[C@H]12 [Ex. 94, (5R,6R)-6-((S)-1-hydroxyethyl)-2-[(2S,4S)-2-hydroxymethylpyrrolidin-4-ylthio]penem-3-carboxylic acid] | 6.25 (≈ 18 µM) | 6.25 (≈ 18 µM) | 0.1 (≈ 0.289 µM) | 0.2 (≈ 0.577 µM) | 
CC(=N)N1CC[C@H](SC2=C(C(=O)O)N3C(=O)[C@H]([C@H](C)F)[C@H]3S2)C1 [Ex. 106, (5R,6R)-6-((S)-1-fluoroethyl)-2-[(S)-1-(1-iminoethyl)pyrrolidin-3-ylthio]penem-3-carboxylic acid] | 3.13 (≈ 8.71 µM) | 3.13 (≈ 8.71 µM) | 0.05 (≈ 0.139 µM) | 1.56 (≈ 4.34 µM) | 
C[C@H](O)[C@@H]1C(=O)N2C(C(=O)O)=C(SCCF)S[C@H]12 [Ex. 48, (5R,6R)-6-((S)-1-hydroxyethyl)-2-(2-fluoroethyl)thiopenem-3-carboxylic acid] |  |  |  |  | MIC (MRSA 31): 12.5 µg/mL (≈ 42.6 µM); MIC (MRSA 33): 12.5 µg/mL (≈ 42.6 µM); MIC ([1]; 209P): 0.2 µg/mL (≈ 0.682 µM); MIC ([2]; NIHJJC2, read-out: antibacterial activities (MIC)): 0.1 µg/mL (≈ 0.341 µM)
C[C@H](F)[C@H]1C(=O)N2C(C(=O)O)=C(SC3CCN(c4ccccc4)C3)S[C@H]12 (single isomer, unassigned) [Ex. 107 (Isomer B)] |  |  |  |  | antibacterial activities (MIC) (MRSA 31; MRSA 31, 10^6 cfu/mℓ): 3.13 µg/mL; antibacterial activities (MIC) (MRSA 33; MRSA 33, 10^6 cfu/mℓ): 3.13 µg/mL; antibacterial activities (MIC) ([1]; 209P JC-1, 10^6 cfu/mℓ): 0.1 µg/mL; antibacterial activities (MIC) [2]: 50 µg/mL
C[C@H](O)[C@@H]1C(=O)N2C(C(=O)O)=C(SCCc3ccccc3)S[C@H]12 [Ex. 43, (5R,6R)-6-((S)-1-hydroxyethyl)-2-phenethylthiopenem-3-carboxylic acid] | 6.25 (≈ 17.8 µM) | 6.25 (≈ 17.8 µM) | 0.2 (≈ 0.569 µM) | 12.5 (≈ 35.6 µM) | 
C[C@H](F)[C@H]1C(=O)N2C(C(=O)O)=C(SC3CCN(c4ccccc4)C3)S[C@H]12 (single isomer, unassigned) [Ex. 107 (Isomer A)] |  |  | 0.1 (≈ 0.253 µM) | > 25 | antibacterial activities (MIC) (MRSA 31; MRSA 31, 10^6 cfu/mℓ): 1.56 µg/mL; antibacterial activities (MIC) (MRSA 33; MRSA 33, 10^6 cfu/mℓ): 1.56 µg/mL
C[C@H](O)[C@@H]1C(=O)N2C(C(=O)O)=C(SCCc3ccccn3)S[C@H]12 [Ex. 73, (5R,6R)-6-((S)-1-hydroxyethyl)-2-[2-(2-pyridyl)ethyl]thiopenem-3-carboxylic acid] | 6.25 (≈ 17.7 µM) | 6.25 (≈ 17.7 µM) | 0.05 (≈ 0.142 µM) | 0.78 (≈ 2.21 µM) | 
CC(C)SC1=C(C(=O)O)N2C(=O)[C@@H]([C@H](C)O)[C@H]2S1 [Ex. 47, (5R,6R)-6-((S)-1-hydroxyethyl)-2-(1-methylethyl)thiopenem-3-carboxylic acid] | 12.5 (≈ 43.2 µM) | 12.5 (≈ 43.2 µM) | 0.2 (≈ 0.691 µM) | 0.2 (≈ 0.691 µM) | 
CCSC1=C(C(=O)O)N2C(=O)[C@@H]([C@H](C)O)[C@H]2S1 [Ex. 41, (5R,6R)-6-((S)-1-hydroxyethyl)-2-ethylthiopenem-3-carboxylic acid] | 12.5 (≈ 45.4 µM) | 12.5 (≈ 45.4 µM) | 0.2 (≈ 0.726 µM) | 0.2 (≈ 0.726 µM) | 
CC(=N)N1CC[C@H](SC2=C(C(=O)O)N3C(=O)[C@@H]([C@H](C)O)[C@H]3S2)C1 [Ex. 89, (5R,6R)-6-((S)-1-hydroxyethyl)-2-[(S)-1-(1-iminoethyl)pyrrolidin-3-ylthio]penem-3-carboxylic acid] | 6.25 (≈ 17.5 µM) | 6.25 (≈ 17.5 µM) | 0.1 (≈ 0.28 µM) | 0.39 (≈ 1.09 µM) | 
